# Where “and” joins values, the source holds several entries; their conditions need not be identical. Equal entries are not always repeated.
# Target: T1, Adenosine A2A receptor (Homo sapiens, UniProt P29274)
# Assay: Adenosine A2A receptor competitive binding assay (Tag-lite HTRF)
# Conditions: Tag-lite adenosine A2A receptor ligand binding, 2 h room temperature; values separated by / are repeat determinations
# Description: Adenosine A2A Receptor Competitive Binding Assay
# The Tag-lite adenosine A2A receptor ligand binding assay is a homogeneous alternative to radioligand binding assay and developed by Cisbio (Bedford, Mass.). We carried out this assay following Cisbio's instructions with minor modification. Pre-transfected, fluorescent donor-labelled cells (Cisbio Cat#: C1TT1A2A, 200 testes) was stored at −80° C. and thawed right before use. Cells were washed once with 5 ml TLB and gently resuspended in 2 ml TLB. 4 μl suspended cells was dispensed into each well of white low-volume 384-well plate (Greiner Bio-One). Serial dilutions of compounds were prepared in Tag-lite buffer (TLB, Cisbio Cat #: LABMED) to a DMSO concentration of 0.6%. After adding 4 μl of compound dilutions to each well, 4 μl60 nM Adenosine A2A receptor red antagonist fluorescent ligand (Cisbio Cat #: L0058RED) was dispensed to each well. The 384-well assay plate was centrifuged briefly and incubated at room temperature for 2 h. HTRF signals were measured using CIARIOstar plate reader (BMG Labtech).
# T1 sequence (P29274 whole entry): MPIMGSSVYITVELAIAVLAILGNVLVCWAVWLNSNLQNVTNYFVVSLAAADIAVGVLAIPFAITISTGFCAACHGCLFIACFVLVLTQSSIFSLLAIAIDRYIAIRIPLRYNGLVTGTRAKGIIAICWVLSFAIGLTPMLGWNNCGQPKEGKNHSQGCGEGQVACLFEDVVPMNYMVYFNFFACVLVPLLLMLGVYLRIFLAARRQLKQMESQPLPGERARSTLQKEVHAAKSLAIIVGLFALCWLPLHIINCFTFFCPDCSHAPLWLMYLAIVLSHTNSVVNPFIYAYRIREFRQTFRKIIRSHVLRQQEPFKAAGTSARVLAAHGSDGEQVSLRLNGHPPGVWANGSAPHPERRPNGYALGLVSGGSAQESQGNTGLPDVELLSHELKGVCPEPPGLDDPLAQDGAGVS
row,Compound,IC50 [nM]
1,"Cc1cc(-c2c(OCCN3CCN(C)CC3)nc(N)nc2-c2ccc(F)cc2)cc(C(F)F)n1 [Example 35, 5-(2-(difluoromethyl)-6-methylpyridin-4-yl)-4-(4-fluorophenyl)-6-(2-(4-methylpiperazin-1-yl)ethoxy)pyrimidin-2-amine]",124
2,"Cc1cc(-c2c(OCC(=O)NCCN(C)C)nc(N)nc2-c2ccc(F)cc2)cc(C(F)F)n1 [Example 43, 2-((2-amino-5-(2-(difluoromethyl)-6-methylpyridin-4-yl)-6-(4-fluorophenyl)pyrimidin-4-yl)oxy)-N-(2-(dimethylamino)ethyl)acetamide]",266
3,"Cc1cc(-c2c(OCC(=O)NC3CC3)nc(N)nc2-c2ccc(F)cc2)cc(C(F)F)n1 [Example 42, 2-((2-amino-5-(2-(difluoromethyl)-6-methylpyridin-4-yl)-6-(4-fluorophenyl)pyrimidin-4-yl)oxy)-N-cyclopropylacetamide]",5.2
4,"Cc1cc(-c2c(C(=O)NCc3cccc(C(C)C)n3)nc(N)nc2-c2ccc(F)cc2)cc(C(F)F)n1 [Example 108, 2-amino-5-(2-(difluoromethyl)-6-methylpyridin-4-yl)-6-(4-fluorophenyl)-N-((6-isopropylpyridin-2-yl)methyl)pyrimidine-4-carboxamide]",222
5,"CC(=O)N1CCN(c2ccc(CCOc3nc(N)nc(-c4ccc(F)cc4)c3-c3cc(C)nc(C(F)F)c3)cc2)CC1 [Example 31, 1-(4-[4-[2-([2-amino-5-[2-(difluoromethyl)-6-methylpyridin-4-yl]-6-(4-fluorophenyl)pyrimidin-4-yl]oxy)ethyl]phenyl]piperazin-1-yl)ethan-1-one]",8.35
6,"CCN(CC)C(=O)CN(C)c1nc(N)nc(-c2ccccc2)c1-c1cc(C)nc(C(F)(F)F)c1 [Example 38, 2-((2-amino-5-(2-methyl-6-(trifluoromethyl)pyridin-4-yl)-6-phenylpyrimidin-4-yl)(methyl)amino)-N,N-diethylacetamide]",816
7,"Cc1cc(-c2c(OCCN3CCOCC3)nc(N)nc2-c2ccc(F)cc2)cc(C(F)F)n1 [Example 36, 5-(2-(difluoromethyl)-6-methylpyridin-4-yl)-4-(4-fluorophenyl)-6-(2-morpholinoethoxy)pyrimidin-2-amine]",11.4

# Target: T1, Adenosine A2A receptor
# Assay: cAMP assay in 293A cells stably expressing the adenosine A2A receptor (CGS21680 stimulation, HTRF)
# Assay type: cell-based
# Set-up: expressed in transfected cells; host or cells: 293A cells (Invitrogen, Cat# R705-07) infected with A2A-expressing lentivirus (custom packaged by Biosettia), puromycin selected
# Conditions: 293A cells stably expressing A2A receptor; 0.1% BSA; 1 uM CGS21680 stimulation; replicate values separated by /; read-out: cAMP (nM) 0.1% BSA, 1 uM CGS
row,Compound,IC50
1,"Cc1cc(-c2c(OCc3nc(C(C)(C)O)cn3C)nc(N)nc2-c2ccc(F)cc2)cc(C(F)F)n1 [Example 401, 2-(2-(((2-amino-5-(2-(difluoromethyl)-6-methylpyridin-4-yl)-6-(4-fluorophenyl)pyrimidin-4-yl)oxy)methyl)-1-methyl-1H-imidazol-4-yl)propan-2-ol]",318 nM and 246 nM and 259 nM
2,"Cc1cc(-c2c(OCc3cc(C(C)(C)O)cc(-c4nnnn4C)n3)nc(N)nc2-c2ccc(F)cc2)cc(C(F)F)n1 [Example 426, 2-(2-(((2-amino-5-(2-(difluoromethyl)-6-methylpyridin-4-yl)-6-(4-fluorophenyl)pyrimidin-4-yl)oxy)methyl)-6-(1-methyl-1H-tetrazol-5-yl)pyridin-4-yl)propan-2-ol]",7980 nM and 6190 nM
3,"Cc1cc(-c2c(OCc3cccc(CNS(C)(=O)=O)n3)nc(N)nc2-c2ccc(F)cc2)cc(C(F)F)n1 [Example 409, N-((6-(((2-amino-5-(2-(difluoromethyl)-6-methylpyridin-4-yl)-6-(4-fluorophenyl)pyrimidin-4-yl)oxy)methyl)pyridin-2-yl)methyl) methanesulfonamide]",977 nM and 822 nM
4,"Cc1cc(-c2c(OCc3cc(C#N)cc(C(C)(C)O)n3)nc(N)nc2-c2ccc(F)cc2)cc(C(F)F)n1 [Example 435, 2-(((2-amino-5-(2-(difluoromethyl)-6-methylpyridin-4-yl)-6-(4-fluorophenyl)pyrimidin-4-yl)oxy)methyl)-6-(2-hydroxypropan-2-yl)isonicotinonitrile]",506 nM
5,"Cc1cc(-c2c(OCc3cc(-c4nnnn4C)cc(C(C)(C)O)n3)nc(N)nc2-c2ccc(F)cc2)cc(C(F)F)n1 [Example 443, 2-(6-(((2-amino-5-(2-(difluoromethyl)-6-methylpyridin-4-yl)-6-(4-fluorophenyl)pyrimidin-4-yl)oxy)methyl)-4-(1-methyl-1H-tetrazol-5-yl)pyridin-2-yl)propan-2-ol]",23200 nM
6,"Cc1cc(-c2c(OCc3nc(C(C)(C)O)cc4ccccc34)nc(N)nc2-c2ccc(F)cc2)cc(C(F)F)n1 [Example 404, 2-(1-(((2-amino-5-(2-(difluoromethyl)-6-methylpyridin-4-yl)-6-(4-fluorophenyl)pyrimidin-4-yl)oxy)methyl)isoquinolin-3-yl)propan-2-ol]",1370 nM and 1800 nM
7,"Cc1cc(-c2c(OCc3cccc(C(C)(C)c4nn[nH]n4)n3)nc(N)nc2-c2ccc(F)cc2)cc(C(F)F)n1 [Example 400, 4-((6-(2-(2H-tetrazol-5-yl)propan-2-yl)pyridin-2-yl)methoxy)-5-(2-(difluoromethyl)-6-methylpyridin-4-yl)-6-(4-fluorophenyl)pyrimidin-2-amine]",1000 nM and 1470 nM and 1440 nM

# Same assay, conditions: 293A-A2AR cells, 0.1% BSA, 1 uM CGS; read-out: cAMP (nM) 0.1% BSA, 1 uM CGS
row,Compound,IC50
1,"Cc1cc(-c2c(OCc3cc4ccccc4o3)nc(N)nc2-c2ccc(F)cc2)cc(C(F)F)n1 [Example 331, 4-(benzofuran-2-ylmethoxy)-5-(2-(difluoromethyl)-6-methylpyridin-4-yl)-6-(4-fluorophenyl)pyrimidin-2-amine]",648 nM
2,CCc1nnn(C[C@@H](O)CO)c1COc1nc(N)nc(-c2ccc(F)cc2)c1-c1cc(C)nc(C(F)F)c1 [Example 290],1310 nM
3,"Cc1cc(-c2c(OCc3nccn3CC(=O)O)nc(N)nc2-c2ccc(F)cc2)cc(C(F)F)n1 [Example 249, 2-(2-(((2-amino-5-(2-(difluoromethyl)-6-methylpyridin-4-yl)-6-(4-fluorophenyl)pyrimidin-4-yl)oxy)methyl)-1H-imidazol-1-yl)acetic acid]",7240 nM
4,"Cc1cc(-c2c(OCCn3cccc(C(=O)O)c3=O)nc(N)nc2-c2ccc(F)cc2)cc(C(F)F)n1 [Example 335, 1-(2-((2-amino-5-(2-(difluoromethyl)-6-methylpyridin-4-yl)-6-(4-fluorophenyl)pyrimidin-4-yl)oxy)ethyl)-2-oxo-1,2-dihydropyridine-3-carboxylic acid]",> 25000 nM
5,"CCc1c(COc2nc(N)nc(-c3cccc(C#N)c3C)c2-c2cc(C)nc(C(F)F)c2)nnn1CC [Example 256, 3-(2-amino-6-((1,5-diethyl-1H-1,2,3-triazol-4-yl)methoxy)-5-(2-(difluoromethyl)-6-methylpyridin-4-yl)pyrimidin-4-yl)-2-methylbenzonitrile]",2910 nM
6,"Cc1cc(-c2c(OCc3ccccn3)nc(NCC(=O)O)nc2-c2ccc(F)cc2)cc(C(F)F)n1 [Example 364, (5-(2-(difluoromethyl)-6-methylpyridin-4-yl)-4-(4-fluorophenyl)-6-(pyridin-2-ylmethoxy)pyrimidin-2-yl)glycine]",> 25000 nM
7,"CCn1c(COc2nc(N)nc(-c3ccc(F)cc3)c2-c2cc(C)nc(C(F)F)c2)nc2cc(C(=O)O)ccc21 [Example 333, 2-(((2-amino-5-(2-(difluoromethyl)-6-methylpyridin-4-yl)-6-(4-fluorophenyl)pyrimidin-4-yl)oxy)methyl)-1-ethyl-1H-benzo[d]imidazole-5-carboxylic acid]",> 5000 nM
8,"CCc1nnn(CC(C)(C)O)c1COc1nc(N)nc(-c2ccc(F)cc2)c1-c1cc(C)nc(C(F)F)c1 [Example 253, 1-(5-(((2-amino-5-(2-(difluoromethyl)-6-methylpyridin-4-yl)-6-(4-fluorophenyl)pyrimidin-4-yl)oxy)methyl)-4-ethyl-1H-1,2,3-triazol-1-yl)-2-methylpropan-2-ol]",2150 nM
9,"Cc1cc(-c2c(OCc3nc4c(C(C)(C)O)cccc4n3C)nc(N)nc2-c2ccc(F)cc2)cc(C(F)F)n1 [Example 361, 2-(2-(((2-amino-5-(2-(difluoromethyl)-6-methylpyridin-4-yl)-6-(4-fluorophenyl)pyrimidin-4-yl)oxy)methyl)-1-methyl-1H-benzo[d]imidazol-4-yl)propan-2-ol]",854 nM and 1110 nM
10,"Cc1cc(-c2c(OCc3ccc4ccccc4n3)nc(N)nc2-c2ccc(F)cc2)cc(C(F)F)n1 [Example 380, 5-(2-(difluoromethyl)-6-methylpyridin-4-yl)-4-(4-fluorophenyl)-6-(quinolin-2-ylmethoxy)pyrimidin-2-amine]",548 nM and 469 nM and 502 nM
11,"Cc1cc(-c2c(OCc3cnccn3)nc(N)nc2-c2ccc(F)cc2)cc(C(F)F)n1 [Example 273, 5-(2-(difluoromethyl)-6-methylpyridin-4-yl)-4-(4-fluorophenyl)-6-(pyrazin-2-ylmethoxy)pyrimidin-2-amine]",1660 nM
12,"CCn1c(COc2nc(N)nc(-c3ccc(F)cc3)c2-c2cc(C)nc(C(F)F)c2)nc2c(C(=O)O)cccc21 [Example 345, 2-(((2-amino-5-(2-(difluoromethyl)-6-methylpyridin-4-yl)-6-(4-fluorophenyl)pyrimidin-4-yl)oxy)methyl)-1-ethyl-1H-benzo[d]imidazole-4-carboxylic acid]",10300 nM
13,Cc1cc(-c2c(OCc3ccnc(C(C)(C)O)n3)nc(N)nc2-c2ccc(F)cc2)cc(C(F)F)n1 [Example 308],164 nM and 197 nM and 159 nM and 113 nM

# — patent US20210355104A1, “ADENOSINE RECEPTOR BINDING COMPOUNDS” (Nikang Therapeuticsm Inc., priority 2018, published 2021)
